Structures are written as SMILES. Values joined by “and” are separate entries in the source; they are usually repeats but may differ in a detail not shown here. Equal values may be shown once.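 Tested at 5 concentrations; 48 h exposure; 96-well plates; endpoints linearly interpolated, else capped at highest concentration. Here, GI50 denotes the concentration required for 50% inhibition of growth.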 Active and inactive are the calls of the source. No stated cut-off is given here; in the data, active = GI50 up to about 1.1 µM and inactive = higher.

Among the test systems are OVCAR-3; SF-268; SF-539; SK-OV-3; DU-145; HOP-62; IGROV-1; SR; OVCAR-8; SK-MEL-2; Malme-3M; CCRF-CEM; HCT-15; UACC-257; HT-29; SNB-75; NCI-H23; EKVX; SW-620; HOP-92.
Holding throughout (assay): NCI tumour cell line growth inhibition, 48 h

Take `O[C@H]1[C@H]2c3cc4c(cc3CN3CCC(=C[C@@H]1O)[C@H]23)OCO4` [LYCORINE]: the GI50 in the test with OVCAR-3 was 2.47 µM (inactive); with SF-268, 0.802 µM (active); in the test on SF-539 it was 1.8 µM (inactive); in the test on SK-OV-3, 1.84 µM (inactive); in the test on DU-145, 1.32 µM (inactive); in the test on HOP-62, 1.78 µM (inactive). The GI50 was 0.332 µM (active) in the test with IGROV-1; 1.47 µM (inactive) in the test with SR; 1.53 µM (inactive) in the test with OVCAR-8; 0.376 µM (active) in the test on SK-MEL-2; 1.92 µM (inactive) in the test on Malme-3M; 1.82 µM (inactive) with CCRF-CEM. In addition, the GI50 in the test with HCT-15 is 1.33 µM; in the test on UACC-257, 0.65 µM (active); in the test with HT-29 it was 1.46 µM (inactive); in the test on SNB-75 it was 3.13 µM (inactive); in the test with NCI-H23, 2.42 µM (inactive); in the test on EKVX, 2.39 µM (inactive). Moreover, the GI50 with SW-620 is 2.61 µM (inactive).
As for `COC(=O)CC(SCCO)SCCO`, the GI50 in the test on OVCAR-3, in the test with SF-268, with SF-539, in the test on SK-OV-3, in the test with DU-145 and with HOP-62 was > 100 µM (inactive) in each case. Further, the GI50 in the test with IGROV-1, in the test with SR, in the test with OVCAR-8, in the test on Malme-3M, in the test with CCRF-CEM and in the test with UACC-257 was > 100 µM (inactive) in each case. Moreover, the GI50 was > 100 µM (inactive) with HOP-92; > 100 µM (inactive) in the test on HT-29; 75.7 µM (inactive) in the test on SNB-75; > 100 µM (inactive) in the test with NCI-H23; > 100 µM (inactive) with EKVX; > 100 µM (inactive) with SW-620.
Turning to `CCN(C(C)=O)c1cnc(/C=N/NC(N)=S)c2ccccc12`, the GI50 in the test with OVCAR-3 is 2.58 µM (inactive); with SF-268 it was 1.58 µM (inactive); in the test with SF-539, 2.93 µM (inactive); with SK-OV-3, 3.65 µM (inactive); in the test on DU-145, 2.06 µM (inactive); with HOP-62, 5.61 µM (inactive). Also, the GI50 in the test on IGROV-1 was 2.76 µM (inactive); with SR it was 0.631 µM (active); in the test with OVCAR-8, 2.29 µM (inactive); with Malme-3M it was 11.4 µM (inactive); with CCRF-CEM it was 2.54 µM (inactive); in the test with HCT-15, 2.25 µM. In addition, the GI50 in the test on UACC-257 is 30.1 µM (inactive); in the test on HOP-92, > 40.4 µM (inactive); in the test on HT-29 it was 3.49 µM (inactive); in the test on SNB-75 it was 18.7 µM (inactive); with NCI-H23 it was 3.36 µM (inactive); with EKVX, 4.29 µM (inactive). For the same molecule, the GI50 in the test with SW-620 was 5.68 µM (inactive).
Regarding `O=C(N/N=C\c1c(O)ccc2ccccc12)c1ccncc1`, the GI50 was 1.22 µM (inactive) in the test on OVCAR-3; 0.341 µM (active) in the test with SF-268; 0.675 µM (active) with SF-539; 0.693 µM (active) with SK-OV-3; 2.88 µM (inactive) with DU-145; 1.31 µM (inactive) with HOP-62. Further, the GI50 was 0.148 µM (active) in the test with IGROV-1; 0.558 µM (active) with SR; 0.574 µM (active) with OVCAR-8; 0.257 µM (active) in the test with SK-MEL-2; 0.0887 µM (active) with CCRF-CEM; 0.0991 µM in the test on HCT-15. The GI50 in the test on UACC-257 is 1.22 µM (inactive); in the test on HOP-92, 1.31 µM (inactive); in the test with HT-29, 1.7 µM (inactive); in the test on SNB-75, 2.75 µM (inactive); in the test with NCI-H23, 1.53 µM (inactive); in the test with SW-620, 0.769 µM (active).
For the molecule `N#Cc1c(N)nc(-c2ccc(Cl)cc2)c2c1-c1ccccc1S(=O)(=O)CC2`, the GI50 in the test on OVCAR-3 is > 100 µM (inactive); in the test with SF-268, 53.6 µM (inactive); in the test with DU-145 it was 74.5 µM (inactive); with HOP-62, 35.7 µM (inactive); with IGROV-1, > 100 µM (inactive); in the test on SR it was 56.4 µM (inactive). The GI50 was 34 µM (inactive) with OVCAR-8; > 100 µM (inactive) with SK-MEL-2; > 100 µM (inactive) in the test on Malme-3M; above 100 µM in the test on HCT-15; > 100 µM (inactive) in the test with UACC-257; > 100 µM (inactive) in the test on HOP-92. The GI50 is > 100 µM (inactive) in the test on HT-29, > 100 µM (inactive) in the test on SNB-75, 66.2 µM (inactive) in the test on NCI-H23 and > 100 µM (inactive) in the test on SW-620.
`Cc1cn(C2CCC(CO)(CF)O2)c(=O)[nH]c1=O` (stereo not drawn): the GI50 in the test on OVCAR-3, in the test with SF-268, in the test with SF-539, with SK-OV-3, in the test with DU-145 and in the test on HOP-62 was > 100 µM (inactive) each time. The GI50 in the test on IGROV-1 was > 100 µM (inactive); in the test on SR, > 100 µM (inactive); in the test on OVCAR-8 it was > 100 µM (inactive); in the test with SK-MEL-2 it was > 100 µM (inactive); with CCRF-CEM, > 100 µM (inactive); in the test on HCT-15, above 100 µM. The GI50 in the test with UACC-257 is > 100 µM (inactive); with HOP-92 it was > 100 µM (inactive); in the test on HT-29, > 100 µM (inactive); in the test with SNB-75, > 100 µM (inactive) and 96.6 µM (inactive); with NCI-H23, > 100 µM (inactive); in the test with EKVX, > 100 µM (inactive). For the same molecule, in the test with SW-620, the GI50 is > 100 µM (inactive).
Take `O=C(Nc1nc(C23CC4CC(CC(C4)C2)C3)cs1)c1cc2c(ccc3ccccc32)oc1=O`: the GI50 in the test on OVCAR-3, with SF-268, in the test with SF-539, in the test with DU-145, with HOP-62 and in the test with IGROV-1 was > 100 µM (inactive) throughout. Also, the GI50 in the test on SR was > 100 µM (inactive); in the test on OVCAR-8 it was > 100 µM (inactive); with Malme-3M, > 100 µM (inactive); in the test with CCRF-CEM it was > 100 µM (inactive); in the test with HCT-15 it was above 100 µM; in the test on UACC-257, > 100 µM (inactive). For the same molecule, the GI50 in the test with HOP-92, in the test on HT-29, in the test with NCI-H23, with EKVX and with SW-620 was > 100 µM (inactive) in each case.
For the molecule `C=C1C(=O)O[C@H]2C(=O)[C@H](C)CCC/C(C)=C/CC[C@@]3(C)O[C@@H]3C[C@@H]12`, the GI50 in the test with OVCAR-3 is 1.74 µM (inactive); in the test with SF-268, 4.54 µM (inactive); with SF-539 it was 2.39 µM (inactive); in the test on SK-OV-3, 16.4 µM (inactive); with DU-145, 2.56 µM (inactive); with HOP-62 it was 11.6 µM (inactive). Moreover, the GI50 in the test with IGROV-1 was 2.76 µM (inactive); in the test on SR, 2.45 µM (inactive); with OVCAR-8, 1.69 µM (inactive); in the test with SK-MEL-2, 5.26 µM (inactive); with CCRF-CEM, 1.18 µM (inactive); in the test on HCT-15, 1.56 µM. Also, the GI50 in the test with UACC-257 is 2.99 µM (inactive); in the test on HOP-92, 1 µM (active); with HT-29 it was 1.9 µM (inactive); in the test on NCI-H23, 14 µM (inactive); with SW-620 it was 1.56 µM (inactive).
As to `CCOC(=O)Oc1ccc2c(c1)c(=O)c1c(NCCCN(CC)CC)ccc3nnn2c31`, the GI50 in the test with OVCAR-3 was 5.5 µM (inactive); in the test on SF-268, 11.6 µM (inactive); in the test on SF-539, 5.62 µM (inactive); in the test on SK-OV-3 it was 11.3 µM (inactive); in the test with DU-145, 0.951 µM (active); with HOP-62 it was 1.75 µM (inactive). Further, the GI50 in the test with IGROV-1 was 5.36 µM (inactive); in the test with SR, 1.57 µM (inactive); in the test with OVCAR-8, 3.48 µM (inactive); with SK-MEL-2, 16.2 µM (inactive); in the test on Malme-3M, 13.4 µM (inactive); with CCRF-CEM it was 0.889 µM (active). Moreover, the GI50 in the test on HCT-15 is 3.09 µM; with UACC-257, 15.4 µM (inactive); with HOP-92, 6.76 µM (inactive); in the test on HT-29 it was 2.55 µM (inactive); in the test with NCI-H23, 13.3 µM (inactive); with EKVX it was 10.7 µM (inactive). For the same molecule, in the test on SW-620, the GI50 is 2.24 µM (inactive).
On to `CCOC(=O)c1csc(C(CSCc2ccc(OC)cc2)N2C(=O)c3ccccc3C2=O)n1` (stereo not drawn), for which the GI50 in the test with OVCAR-3, in the test on SF-268, in the test on SF-539, in the test with SK-OV-3, in the test with DU-145 and in the test on HOP-62 was > 100 µM (inactive) throughout. Besides, the GI50 is > 100 µM (inactive) with IGROV-1; 26.5 µM (inactive) in the test with SR; > 100 µM (inactive) with OVCAR-8; > 100 µM (inactive) in the test on Malme-3M; 35.9 µM (inactive) in the test on CCRF-CEM; 62.7 µM in the test on HCT-15. The GI50 is > 100 µM (inactive) in the test on UACC-257; > 100 µM (inactive) in the test on HOP-92; 87.7 µM (inactive) with HT-29; > 100 µM (inactive) in the test with NCI-H23; > 100 µM (inactive) in the test with EKVX; 50.2 µM (inactive) with SW-620.
With `O=C(Nc1nnc(-c2c(Cl)c(Cl)c(Cl)c(Cl)c2-c2nc3cc(C(=O)c4ccccc4)ccc3[nH]2)o1)c1ccc(Cl)cc1`, the GI50 was 13.8 µM (inactive) with OVCAR-3; 22.4 µM (inactive) in the test on SF-539; 40.2 µM (inactive) in the test on SK-OV-3; 58.6 µM (inactive) in the test on DU-145; 12.8 µM (inactive) in the test with HOP-62; 29.2 µM (inactive) in the test with IGROV-1. Besides, the GI50 in the test with SR was 4.88 µM (inactive); in the test with OVCAR-8, 39.2 µM (inactive); with SK-MEL-2, 29.6 µM (inactive); with CCRF-CEM, 6.27 µM (inactive); in the test on HCT-15, 22.5 µM; in the test on UACC-257, 36.8 µM (inactive). The GI50 in the test on HOP-92 is 20.5 µM (inactive); with HT-29, 37.9 µM (inactive); in the test with SNB-75 it was 47.8 µM (inactive); in the test on NCI-H23, 26.8 µM (inactive); in the test with EKVX, 25.9 µM (inactive); in the test with SW-620, 57 µM (inactive).

For the origin of these results see ChEMBL document CHEMBL1201862, “PubChem BioAssay data set” (2004).
